In patent US7687508B2, “Cyclic derivatives as modulators of chemokine receptor activity” (Bristol-Myers Squibb Company, priority 2006, dated 2010):

Experiments:
[1] = molecular target: T1, human CCR2 (Homo sapiens, UniProt P41597); assay: THP-1 binding (CCR2, 125I-human MCP-1 tracer); set-up: THP-1 human monocytic leukemic cell line, which expresses endogenous CCR2; endogenous in cells; host or cells: THP-1 human monocytic leukemia cells; settings: metabolite examples; THP-1 cells, 125I-MCP-1
T1 sequence (P41597 1-360 isoform P41597-2): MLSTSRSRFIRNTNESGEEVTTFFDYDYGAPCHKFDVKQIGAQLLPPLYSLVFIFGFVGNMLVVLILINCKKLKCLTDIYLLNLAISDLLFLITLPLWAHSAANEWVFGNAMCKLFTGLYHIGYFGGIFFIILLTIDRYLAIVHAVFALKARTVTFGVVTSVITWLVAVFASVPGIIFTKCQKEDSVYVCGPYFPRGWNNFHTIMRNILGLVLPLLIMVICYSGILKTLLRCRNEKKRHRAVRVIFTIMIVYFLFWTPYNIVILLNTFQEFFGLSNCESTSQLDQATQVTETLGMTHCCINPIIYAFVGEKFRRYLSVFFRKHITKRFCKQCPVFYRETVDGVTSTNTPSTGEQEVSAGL
Experimental: The human CCR2 binding assay was also established with the THP-1 human monocytic leukemic cell line, which expresses endogenous CCR2, using 125I-human MCP-1 as the tracer ligand. Radioligand competition binding assays were used for assessment of binding affinity of test compounds to the CCR2 receptor. For radioligand competition studies, 100 μl containing 2.5×10^5 THP-1 cells/well (in assay buffer containing 50 mM HEPES, pH7.4, 5 mM MgCl2, 1 mM CaCl2 and 0.5% BSA) were added to 96-well assay plates containing test compound in 3-fold serial dilution, with final concentrations ranging from […]. Subsequently, 50 μl ^125I-MCP-1 radioligand at a final concentration of 0.2 nM in assay buffer were added to the reaction. After a 90 minute incubation period at room temperature, the binding reaction was terminated by harvesting on GF/B filter plates (PerkinElmer Cat. No. 6005177) followed by washing with ice-cold wash buffer (50 mM HEPES, pH 7.4, 0.1% BSA, 0.5 M NaCl) to remove unbound ligand. After washing, the plate was dried for 45 minutes at 60° C. followed by addition of 40 μl MicroScint 20 scintillation fluid, sealed and analyzed by the Packard TopCount reader. […] The competition data was plotted as a percentage inhibition of radioligand specific bound in the absence of test compound (percent of total signal). After correcting for non-specific binding, IC50 values were determined.

[2] = molecular target: T1, human CCR2; assay: Human peripheral blood mononuclear cell binding (CCR2 binding), 125I-human MCP-1 tracer; set-up: hPBMCs were isolated from human leukopak (Biological Specialty Inc.); endogenous in cells; host or cells: human peripheral blood mononuclear cells from leukopak (Biological Specialty Inc.); settings: hPBMCs, 125I-MCP-1
Experimental: See also: Yoshimura et al., J. Immunol. 1990, 145, 292. The human CCR2 binding assay was established with human peripheral blood mononuclear cells (hPBMCs) using ^125I-human MCP-1 as the tracer ligand. hPBMCs were isolated from human leukopak (Biological Specialty Inc.) using a standard protocol with Ficoll-Hypaque (Mediatech Cellgro). Isolated hPBMCs were washed and diluted to 1×10^7/ml in binding buffer (RPMI-1640, 0.1% BSA, 20 mM Hepes, pH 7.4). ^125I-MCP-1 (NEN/Perk Elmer) was diluted to 0.45 nM in binding buffer. The compound was diluted in binding buffer at 3-fold the final concentrations used in the binding assay. The binding assay was performed using a 96-well filter plate (Millipore). Total ^125I-MCP-1 binding was assessed as follows: to each reaction of a total volume of 150 μl were added 5×10^5 cells, 0.15 nM […], and compound such that the final concentration ranged from 0 to 100 nM. The plate was incubated at room temperature for 30 minutes followed by three washes with RPMI-1640, 0.1% BSA, 0.4 M NaCl, 20 mM Hepes, pH 7.4 using a vacuum manifold filtration (Millipore). After washing, the plate was air-dried for 60 minutes at room temperature. This was followed by adding 25 μl of Microscint 20 into each well. The plate was sealed and counted on the Trilux for 1 minute. Non-specific binding was determined in the presence of 300 nM cold MCP-1 (PeproTech Inc.). Specific 1-MCP-1 was calculated as the difference between total and non-specific binding. All conditions were tested in duplicate.

[3] = molecular target: human cardiac sodium channel, SCN5A (Nav1.5) (Homo sapiens, UniProt Q14524); assay: Sodium channel patch clamp (whole-cell, HEK-293); type: cell-based; settings: HEK-293 cells expressing human cardiac sodium channel SCN5A, 30,000 nM, read-out: Na+ channel patch clamp (% inhibition)
Chain of human cardiac sodium channel, SCN5A (Nav1.5) (Q14524 whole entry): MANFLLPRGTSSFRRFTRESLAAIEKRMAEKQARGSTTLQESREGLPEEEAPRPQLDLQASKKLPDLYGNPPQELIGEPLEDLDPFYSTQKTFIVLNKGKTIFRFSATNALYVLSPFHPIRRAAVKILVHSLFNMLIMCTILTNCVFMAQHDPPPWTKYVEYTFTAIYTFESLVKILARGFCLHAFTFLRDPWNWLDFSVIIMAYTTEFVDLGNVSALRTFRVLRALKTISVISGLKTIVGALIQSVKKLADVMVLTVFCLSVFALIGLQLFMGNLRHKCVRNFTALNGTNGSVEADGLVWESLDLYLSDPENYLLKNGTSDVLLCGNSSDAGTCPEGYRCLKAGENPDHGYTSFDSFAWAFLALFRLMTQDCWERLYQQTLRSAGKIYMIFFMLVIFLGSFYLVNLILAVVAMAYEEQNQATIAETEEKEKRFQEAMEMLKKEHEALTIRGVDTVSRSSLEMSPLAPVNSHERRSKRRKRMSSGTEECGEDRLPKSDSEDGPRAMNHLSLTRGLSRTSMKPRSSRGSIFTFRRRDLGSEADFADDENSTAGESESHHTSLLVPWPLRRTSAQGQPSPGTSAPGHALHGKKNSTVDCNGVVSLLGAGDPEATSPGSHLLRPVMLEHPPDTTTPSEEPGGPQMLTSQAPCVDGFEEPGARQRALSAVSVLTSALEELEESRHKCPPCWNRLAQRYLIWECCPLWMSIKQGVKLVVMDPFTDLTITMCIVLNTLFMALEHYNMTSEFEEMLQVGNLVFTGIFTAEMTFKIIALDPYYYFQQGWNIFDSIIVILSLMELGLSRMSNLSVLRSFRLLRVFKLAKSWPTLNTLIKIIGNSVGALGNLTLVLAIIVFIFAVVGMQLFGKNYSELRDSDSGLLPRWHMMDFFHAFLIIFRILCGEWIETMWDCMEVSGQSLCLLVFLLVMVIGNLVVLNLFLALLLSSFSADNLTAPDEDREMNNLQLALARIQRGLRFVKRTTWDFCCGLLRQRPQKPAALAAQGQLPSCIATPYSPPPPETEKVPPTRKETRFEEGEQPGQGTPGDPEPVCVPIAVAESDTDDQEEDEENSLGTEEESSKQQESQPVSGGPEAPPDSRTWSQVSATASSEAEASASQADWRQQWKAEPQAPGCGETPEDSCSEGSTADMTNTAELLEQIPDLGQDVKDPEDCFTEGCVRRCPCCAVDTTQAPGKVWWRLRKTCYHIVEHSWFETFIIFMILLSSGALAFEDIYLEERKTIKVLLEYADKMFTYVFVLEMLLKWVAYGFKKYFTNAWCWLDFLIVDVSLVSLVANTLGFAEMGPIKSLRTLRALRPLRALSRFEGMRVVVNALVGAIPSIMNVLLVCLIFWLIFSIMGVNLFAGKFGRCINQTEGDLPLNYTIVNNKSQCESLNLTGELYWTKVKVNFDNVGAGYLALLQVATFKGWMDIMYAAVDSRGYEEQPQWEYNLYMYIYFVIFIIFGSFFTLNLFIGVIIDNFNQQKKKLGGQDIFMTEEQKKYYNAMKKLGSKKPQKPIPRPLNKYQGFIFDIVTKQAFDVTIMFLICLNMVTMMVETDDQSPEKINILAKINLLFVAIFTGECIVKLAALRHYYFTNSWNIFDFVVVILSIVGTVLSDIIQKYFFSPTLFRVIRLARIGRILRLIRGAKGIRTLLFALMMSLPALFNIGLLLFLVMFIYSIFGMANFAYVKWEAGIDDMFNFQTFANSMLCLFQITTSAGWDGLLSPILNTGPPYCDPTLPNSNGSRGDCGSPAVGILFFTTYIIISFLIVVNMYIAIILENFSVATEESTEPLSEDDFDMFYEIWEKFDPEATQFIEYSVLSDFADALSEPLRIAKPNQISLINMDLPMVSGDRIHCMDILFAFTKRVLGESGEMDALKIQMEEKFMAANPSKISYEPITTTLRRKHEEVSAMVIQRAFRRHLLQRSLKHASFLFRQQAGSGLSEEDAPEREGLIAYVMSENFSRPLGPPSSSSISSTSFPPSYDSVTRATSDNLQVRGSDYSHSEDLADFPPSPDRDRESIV
Experimental: The compound was tested at a protein-free aqueous buffer. For determining steady state inhibition, sodium currents were elicited every 5 seconds using the following voltage protocol: cells were held at a potential of −90 mV and stepped to −20 mV for 60 ms. Effects were calculated by measuring inhibition of peak current during the test pulse to −20 mV. Rate-dependence of inhibition was assessed by stimulation at frequencies of 1 Hz and 4 Hz.

[4] = molecular target: T1, human CCR2; assay: CCR2 chemotaxis (MCP-1-induced, THP-1 cells); type: cell-based; set-up: hPBMCs were isolated from human leukopak (Biological Specialty Inc.); endogenous in cells; host or cells: human peripheral blood mononuclear cells from leukopak (Biological Specialty Inc.)
Experimental: The human CCR2 chemotaxis assay was conducted with the human monocytic cell line, THP-1. THP-1 cells were first labeled with the fluorescent dye Calcein-AM in phenol red-free, BSA-free RPMI-1640 (pH 7.4) at 37° C. for 30 minutes with gentle mixing every 15 minutes. The labeled cells were then washed and re-suspended at 1×10^5/ml in chemotaxis buffer (phenol red-free RPMI-1640, 0.1% BSA, pH 7.4). The test compound was diluted in chemotaxis buffer such that the final assay concentration ranged from 0.01 nM to 1 μM. […] To perform the assay, an equal volume of test compound dilutions was mixed with an equal volume of labeled THP-1 cells (Mixture 1), and an equal volume of test compound dilutions was mixed with an equal volume of diluted MCP-1 ligand (Mixture 2). Both mixtures were incubated independently at 37° C. for 10 minutes followed by gentle mixing. MCP-1-induced chemotaxis was then measured in a chemotaxis plate (Becton Dickinson) by placing 50 μl of Mixture 1 in the top chamber and 225 μl of Mixture 2 in the bottom chamber. The plate was covered with a lid and incubated at 37° C. for 30 minutes. 30 minutes later, the plate was read on a Cytofluor. All conditions were tested in duplicate. […] The inhibition achieved by graded concentrations of test compound was calculated as a percentage of the compound-free MCP-1 control.

[5] = molecular target: T2, hERG (Homo sapiens, UniProt Q12809); assay: hERG flux (Tl+ flux, FLIPR) in HEK293 cells; type: cell-based; settings: HEK293 cells stably expressing hERG
T2 construct: expressed in transfected cells
T2 sequence (Q12809 whole entry): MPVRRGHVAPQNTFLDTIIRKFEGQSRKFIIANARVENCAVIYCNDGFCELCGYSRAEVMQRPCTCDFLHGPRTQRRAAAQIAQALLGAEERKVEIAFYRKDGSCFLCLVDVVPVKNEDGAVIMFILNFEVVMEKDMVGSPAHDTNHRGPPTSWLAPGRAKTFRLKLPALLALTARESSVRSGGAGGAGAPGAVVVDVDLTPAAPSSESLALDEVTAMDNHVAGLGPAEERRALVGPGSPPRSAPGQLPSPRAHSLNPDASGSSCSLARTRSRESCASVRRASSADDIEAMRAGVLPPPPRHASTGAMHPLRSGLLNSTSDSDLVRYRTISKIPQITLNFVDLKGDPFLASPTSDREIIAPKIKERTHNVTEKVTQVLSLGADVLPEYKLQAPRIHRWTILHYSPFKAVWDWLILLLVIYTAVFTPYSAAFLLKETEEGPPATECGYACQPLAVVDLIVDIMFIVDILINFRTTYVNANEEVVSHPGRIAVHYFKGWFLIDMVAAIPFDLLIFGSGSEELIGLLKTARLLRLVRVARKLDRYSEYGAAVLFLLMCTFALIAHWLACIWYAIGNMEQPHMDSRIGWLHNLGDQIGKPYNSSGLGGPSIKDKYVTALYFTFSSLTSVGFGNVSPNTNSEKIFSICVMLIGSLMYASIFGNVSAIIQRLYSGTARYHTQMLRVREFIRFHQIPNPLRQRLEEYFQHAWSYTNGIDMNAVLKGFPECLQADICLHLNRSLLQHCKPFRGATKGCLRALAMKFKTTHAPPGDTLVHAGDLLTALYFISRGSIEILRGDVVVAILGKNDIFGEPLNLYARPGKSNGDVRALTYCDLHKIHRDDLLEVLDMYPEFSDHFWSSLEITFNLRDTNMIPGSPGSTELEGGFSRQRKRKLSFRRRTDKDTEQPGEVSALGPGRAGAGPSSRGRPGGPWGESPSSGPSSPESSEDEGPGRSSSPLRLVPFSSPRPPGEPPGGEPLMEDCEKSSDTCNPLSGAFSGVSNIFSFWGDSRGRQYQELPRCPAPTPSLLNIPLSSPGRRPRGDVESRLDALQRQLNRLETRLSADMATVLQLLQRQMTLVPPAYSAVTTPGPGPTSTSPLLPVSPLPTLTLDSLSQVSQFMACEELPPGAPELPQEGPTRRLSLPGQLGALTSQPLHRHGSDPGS
Experimental: HEK293 cells stably-expressing hERG channels were grown (37° C., 5% CO2) in Dulbecco's Modified Eagle's Media supplemented with 10% Sigma fetal bovine serum, non-essential amino acids, 2 mM L-glutamine and 500 μg/ml G418, at incubator.
A 2 mM stock of BTC-AM dye (Molecular Probes, Eugene, Oreg.) was prepared in 100% DMSO and then added 1:1 to 10% (w/v) pluronic acid in DMSO on the day of assay. The dye was then diluted in hERG external EP buffer (140 mM NaCl, 4.0 mM KCl, 1.8 mM CaCl2, 1.0 mM MgCl2, 10 mM HEPES, pH 7.3 and 10 mM glucose; all buffer components obtained from Sigma Chemical). […] Cells are incubated at 21° C. for 45 minutes.
These compounds were then serially-diluted at a 1:2 ratio in DMSO in columns 1-10 and 11-20 of a 384-well plate. Assay-ready plates were generated by stamping 2.5 μl from the DMSO serially diluted plate, which was prepared on the Velocity 11 BioCel. Aqueous plates were created by adding 48 μl of EP buffer and then were diluted 30-45 minutes before the assay was read on the FLIPR. […] Final DMSO concentration in the assay is 1%. Assay-ready aqueous plates were prepared and diluted on a Cybio liquid handler.
Data collection proceeded every second for 48 seconds, and then continued every three seconds for an additional 2 minutes.
The dynamic range of the assay was determined from blanks and totals wells. The totals wells (columns 21 and 22) define maximal hERG activation for the plate (no test compound present), and the blanks wells (columns 23 and 24) define 100% hERG inhibition. […] Raw data points in each sample well were first corrected for cell/signal variation, negative control (blanks) background, and normalized to the positive controls (totals) using the online FLIPR software. Test compound concentration response curves for the hERG Tl^+ flux data were then fit using Excel Fit (ID Business Solutions Limited, Surrey, UK) with a single-site logistic equation, Y=A+((B−A)/1+((C/X)^D))) where A=maximal inhibition. Data were analyzed by fitting maximum amplitudes of change in fluorescence for Tl^+ flux for a given condition of test compound.

[6] = molecular target: T2, hERG; assay: hERG patch clamp (whole-cell, HEK-293); type: cell-based; settings: for inhibition at 10000 nM: pH 7.4, 10,000 nM; for inhibition at 30000 nM: pH 7.4, 30,000 nM
[7] = Parallel Artificial Membrane Permeability Assay (PAMPA); type: in vitro ADME; settings: apical and basolateral pH 7.4
Experimental: All experiments are conducted in triplicate determinations.

[8] = Single-dose pharmacokinetics in monkeys; type: in vivo; settings: male, cynomolgus monkey, plasma, dose per compound (mg/kg)
Description: (1500-2000×g) to obtain plasma.

[9] = Single-dose pharmacokinetics in rats; type: in vivo; settings: male, Sprague-Dawley, plasma, rat, dose per compound (mg/kg)
Experimental: (1500-2000×g) to obtain plasma. […] Plasma samples, obtained by centrifugation at 4° C.

[10] = metabolite examples, read-out: PBMC Binding IC50
[11] = figure in parentheses in the cell not copied (count of determinations), read-out: CCR2 Binding IC50

SMILES | IC50 [1] [nM] | IC50 [2, 10] [nM] | IC50 [4] [nM] | Papp at 4 h, 100 µM [7] [×10⁻⁶ cm/s] | IC50 [2, 11] [nM] | inhibition at 30000 nM [3] [%] | IC50 [5] [nM] | inhibition at 10000 nM [6] [%] | inhibition at 30000 nM [6] [%] | further results
CC(=O)N[C@@H]1C[C@H](NC(C)C)CC[C@@H]1N1CC[C@H](Nc2nc[n+]([O-])c3ccc(C(F)(F)F)cc23)C1=O [Example 6, N-((1R,2S,5R)-5-(isopropylamino)-2-((3S)-3-((1-oxido-6-(trifluoromethyl)-4-quinazolinyl)amino)-2-oxo-1-pyrrolidinyl)cyclohexyl)acetamide] | 139 |  |  |  |  |  |  |  |  | 
CC(=O)N[C@@H]1C[C@H](N(C)C(C)C)CC[C@@H]1N1CC[C@H](Nc2nc[n+]([O-])c3ccc(C(F)(F)F)cc23)C1=O [Example 5, N-((1R,2S,5R)-5-(isopropyl(methyl)amino)-2-((3S)-3-((1-oxido-6-(trifluoromethyl)-4-quinazolinyl)amino)-2-oxo-1-pyrrolidinyl)cyclohexyl)acetamide] | 21.3 | 27.5 ± 1.4 |  |  |  |  |  |  |  | 
CC(C)N(C)[C@@H]1CC[C@H](N2CC[C@H](Nc3ncnc4ccc(C(F)(F)F)cc34)C2=O)[C@H](NC=O)C1 [Example 7, N-((1R,2S,5R)-5-(isopropyl(methyl)amino)-2-((S)-2-oxo-3-(6-(trifluoromethyl)quinazolin-4-ylamino)pyrrolidin-1-yl)cyclohexyl)formamide] |  |  | 2.85 | 32.6 ± 22.1 | 1.72 ± 0.54 | 10 | > 80000 | 12 | 29 | 

More lines, main results first:

IC50 [1] [nM] | IC50 [2, 10] [nM] | IC50 [4] [nM] | Papp at 4 h, 100 µM [7] [×10⁻⁶ cm/s] | IC50 [2, 11] [nM] | SMILES | inhibition at 30000 nM [3] [%] | IC50 [5] [nM] | inhibition at 10000 nM [6] [%] | inhibition at 30000 nM [6] [%] | further results
19.9 | 14.9 ± 5.2 |  |  |  | CC(=O)N[C@@H]1C[C@H](NC(C)(C)C)CC[C@@H]1N1CC[C@H](Nc2nc[n+]([O-])c3ccc(C(F)(F)F)cc23)C1=O [Example 14, N-((1R,2S,5R)-5-(tert-butylamino)-2-((3S)-3-((1-oxido-6-(trifluoromethyl)-4-quinazolinyl)amino)-2-oxo-1-pyrrolidinyl)cyclohexyl)acetamide] |  |  |  |  | 
 |  | 0.35 | 26.6 | 1.69 ± 0.67 | CC(=O)N[C@@H]1C[C@H](N(C)C(C)C)CC[C@@H]1N1CC[C@H](NC(=O)c2cccc(C(C)(C)C)n2)C1=O [Example 9, N-((3S)-1-((1S,2R,4R)-2-acetamido-4-(isopropyl(methyl)amino)cyclohexyl)-2-oxo-3-pyrrolidinyl)-6-tert-butyl-2-pyridinecarboxamide] | 6 | > 80000 | 26 | 41 | 
 |  | 1.6 ± 0.42 | 22.8 | 5.18 ± 1.98 | CCC(=O)N[C@@H]1C[C@H](N)CC[C@@H]1N1CC[C@H](Nc2ncnc3ccc(C(F)(F)F)cc23)C1=O [Example 10, N-((1R,2S,5R)-5-amino-2-((3S)-2-oxo-3-((6-(trifluoromethyl)-4-quinazolinyl)amino)-1-pyrrolidinyl)cyclohexyl)propanamide] | 35 | > 80000 |  | 33 | clearance ([8]; IV): 21 mL/min/kg; AUC ([8]; PO): 1.08 µM·h; bioavailability ([8]; oral bioavailability): 67%; clearance ([9]; IV): 45 mL/min/kg; AUC ([9]; PO): 4.23 µM·h; bioavailability ([9]; oral bioavailability): 57%
